Measurements: patent US11231416B2, “Virus-like particle (VLP) based small molecule-protein interaction trap” (VIB VZW, priority 2015, dated 2022)

Legend:
[1] = target: T1, TAOK2 (Homo sapiens, UniProt Q9UL54); assay: Viral trapping in VLPs, MS analysis; format: binding; conditions: all proteins (incl. low confidence identifications)
T1 construct: endogenous in cells; host or cells: HEK293T
Protocol: (§1) For mass spectrometry, 10^7 HEK293T cells were seeded in five flasks (75 cm^2) and transfected the next day with a total of 15 μg DNA per flask using polyethylene imine reagent. The following DNA quantities were used per flask: 7.5 μg of GAG-eDHFR, 5.4 μg of mock vector and 2.1 μg of a 50/50 mix of pMD2.G and pcDNA3-FLAG-VSV-G. The small molecule fusions were added immediately after transfection to the producing cells at a concentration of 1 μM. The same dilution of dimethyl sulfoxide (DMSO) was added in control experiments to control the effect of this chemical on the cells. The cellular supernatant was harvested after 32 hours and was centrifuged for 3 minutes at 450×g to remove cellular debris. The cleared supernatant was then filtered using 0.45 μm filters (Millipore). A total of 100 μl MyOne™ Streptavidin T1 beads (Life Technologies) pre-loaded with 10 μg ANTI-FLAG® BioM2-Biotin antibody (Sigma-Aldrich®) was used to bind the tagged particles. Particles were allowed to bind for 2 hours by end-over-end rotation. The total supernatant was processed in three consecutive binding steps. Bead-particle complexes were washed once with washing buffer (TWB: 20 mM Tris-HCl pH 7.5, 150 mM NaCl) and were then eluted with FLAG peptide (200 μg/ml in TWB) and lysed by addition of SDS to a final concentration of 0.1%. After 5 minutes, SDS was removed using HiPPR Detergent Removal Spin Columns (Pierce, Thermo Scientific) followed by boiling and overnight digestion with 0.5 μg sequence-grade trypsin (Promega). After acidification (0.1% TFA final), the peptides were separated by nano-LC and directly analyzed with a Q Exactive instrument (Thermo Scientific).
(§2) For tamoxifen, four biological repeats were performed where the cells were treated with MTX-PEG6-tamoxifen after transfection. The obtained protein lists after viral trapping and MS analysis were challenged with protein lists coming from the four DMSO controls, the 19 control experiments and the lists obtained for the MTX-PEG6-simvastatin and MTX-PEG6-reversine (see below) for a total of 30 samples.

[2] = target: T2, SREBF2 (Homo sapiens, UniProt Q12772); assay: Viral trapping in VLPs, MS analysis; format: binding; conditions: all proteins (incl. low confidence identifications)
T2 construct: endogenous in cells; host or cells: HEK293T
Protocol: as §1, §2

[3] = target: T3, NCS1 (Homo sapiens, UniProt P62166); assay: Viral trapping in VLPs, MS analysis; format: binding; conditions: all proteins (incl. low confidence identifications)
T3 construct: endogenous in cells; host or cells: HEK293T
Protocol: as §1, §2

[4] = target: T4, TBL2 (Homo sapiens, UniProt Q9Y4P3); assay: Viral trapping in VLPs, MS analysis; format: binding
T4 construct: endogenous in cells; host or cells: HEK293T
Protocol: as §1, §2

[5] = target: T5, SEMA4G (Homo sapiens, UniProt Q9NTN9); assay: Viral trapping in VLPs, MS analysis; format: binding; conditions: all proteins (incl. low confidence identifications)
T5 construct: endogenous in cells; host or cells: HEK293T
Protocol: as §1, §2

[6] = target: T6, GRAMD4 (Homo sapiens, UniProt Q6IC98); assay: Viral trapping in VLPs, MS analysis; format: binding; conditions: all proteins (incl. low confidence identifications)
T6 construct: endogenous in cells; host or cells: HEK293T
Protocol: as §1, §2

[7] = target: T7, EPHX1 (Homo sapiens, UniProt P07099); assay: Viral trapping in VLPs, MS analysis; format: binding; conditions: all proteins (incl. low confidence identifications)
T7 construct: endogenous in cells; host or cells: HEK293T
Protocol: as §1, §2

[8] = target: T8, PCSK5 (Homo sapiens, UniProt Q92824); assay: Viral trapping in VLPs, MS analysis; format: binding; conditions: all proteins (incl. low confidence identifications)
T8 construct: endogenous in cells; host or cells: HEK293T
Protocol: as §1, §2

[9] = target: T9, DNAJB12 (Homo sapiens, UniProt Q9NXW2); assay: Viral trapping in VLPs, MS analysis; format: binding; conditions: all proteins (incl. low confidence identifications)
T9 construct: endogenous in cells; host or cells: HEK293T
Protocol: as §1, §2

[10] = target: T10, HSD17B12 (Homo sapiens, UniProt Q53GQ0); assay: Viral trapping in VLPs, MS analysis; format: binding; conditions: all proteins (incl. low confidence identifications)
T10 construct: endogenous in cells; host or cells: HEK293T
Protocol: as §1, §2

[11] = target: T11, DCAKD (Homo sapiens, UniProt Q8WVC6); assay: Viral trapping in VLPs, MS analysis; format: binding; conditions: all proteins (incl. low confidence identifications)
T11 construct: endogenous in cells; host or cells: HEK293T
Protocol: as §1, §2

[12] = target: T12, UBQLN2 (Homo sapiens, UniProt Q9UHD9); assay: Viral trapping in VLPs, MS analysis; format: binding
T12 construct: endogenous in cells; host or cells: HEK293T
Protocol: as §1, §2

[13] = target: T13, ENPP4 (Homo sapiens, UniProt Q9Y6X5); assay: Viral trapping in VLPs, MS analysis; format: binding; conditions: all proteins (incl. low confidence identifications)
T13 construct: endogenous in cells; host or cells: HEK293T
Protocol: as §1, §2

[14] = target: T14, HSD17B4 (Homo sapiens, UniProt P51659); assay: Binary MASPIT assay; format: cell-based; conditions: HEK293T cells, 100 ng/ml leptin, 24 hours; FIG. 4
T14 construct: endogenous in cells; host or cells: HEK293T
T14 sequence (P51659 1-736): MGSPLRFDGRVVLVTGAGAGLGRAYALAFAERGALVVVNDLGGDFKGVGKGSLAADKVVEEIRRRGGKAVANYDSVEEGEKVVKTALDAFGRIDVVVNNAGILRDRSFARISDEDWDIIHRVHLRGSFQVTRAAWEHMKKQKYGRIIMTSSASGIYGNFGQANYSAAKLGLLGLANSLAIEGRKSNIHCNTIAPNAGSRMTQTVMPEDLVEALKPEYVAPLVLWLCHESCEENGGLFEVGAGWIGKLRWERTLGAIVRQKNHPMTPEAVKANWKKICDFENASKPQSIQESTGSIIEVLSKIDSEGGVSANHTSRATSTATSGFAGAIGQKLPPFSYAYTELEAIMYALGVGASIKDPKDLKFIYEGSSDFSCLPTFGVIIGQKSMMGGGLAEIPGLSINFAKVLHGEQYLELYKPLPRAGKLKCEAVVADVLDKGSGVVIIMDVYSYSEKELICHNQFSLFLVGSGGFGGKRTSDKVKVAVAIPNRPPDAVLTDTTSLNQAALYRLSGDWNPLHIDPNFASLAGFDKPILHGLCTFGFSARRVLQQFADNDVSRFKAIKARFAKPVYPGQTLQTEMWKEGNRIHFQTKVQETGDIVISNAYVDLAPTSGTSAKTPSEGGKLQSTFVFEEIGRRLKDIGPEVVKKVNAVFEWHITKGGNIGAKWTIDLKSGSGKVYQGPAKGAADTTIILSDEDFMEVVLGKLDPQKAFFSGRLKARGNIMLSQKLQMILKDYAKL
Protocol: The binding of HSD17B4 to tamoxifen was further confirmed using the MASPIT technology. The binary MASPIT assay was essentially performed as described before (Risseeuw et al., 2013). Briefly, HEK293T cells were seeded in black tissue-culture treated 96-well plates at 10.000 cells/well in 100 μl culture medium (DMEM supplemented with 10% fetal calf serum), and grown at 37° C., 8% CO2. Twenty-four hours later cells were transfected with a combination of the pCLG-eDHFR plasmid (Risseeuw et al., 2013), the pMG1-HSD17B4 construct and the pXP2d2-rPAP1-luciferase reporter (Caligiuri et al., 2006). The pMG1-HSD17B4 construct was generated by Gateway transfer of the full size HSD17B4 ORF, obtained as an entry clone in the hORFeome collection, into the Gateway compatible pMG1 prey destination vector as described earlier (Lievens et al., 2009). Twenty-four hours after transfection, cells were either left unstimulated or treated with 100 ng/ml leptin, with or without addition of MTX-PEG6-tamoxifen. Another 24 hours later, luciferase activity was assayed using the Luciferase Assay System kit (Promega).

[15] = all proteins (incl. low confidence identifications)
[16] = proteins identified with >1 peptide (high confidence)

T12 sequence (Q9UHD9 whole entry): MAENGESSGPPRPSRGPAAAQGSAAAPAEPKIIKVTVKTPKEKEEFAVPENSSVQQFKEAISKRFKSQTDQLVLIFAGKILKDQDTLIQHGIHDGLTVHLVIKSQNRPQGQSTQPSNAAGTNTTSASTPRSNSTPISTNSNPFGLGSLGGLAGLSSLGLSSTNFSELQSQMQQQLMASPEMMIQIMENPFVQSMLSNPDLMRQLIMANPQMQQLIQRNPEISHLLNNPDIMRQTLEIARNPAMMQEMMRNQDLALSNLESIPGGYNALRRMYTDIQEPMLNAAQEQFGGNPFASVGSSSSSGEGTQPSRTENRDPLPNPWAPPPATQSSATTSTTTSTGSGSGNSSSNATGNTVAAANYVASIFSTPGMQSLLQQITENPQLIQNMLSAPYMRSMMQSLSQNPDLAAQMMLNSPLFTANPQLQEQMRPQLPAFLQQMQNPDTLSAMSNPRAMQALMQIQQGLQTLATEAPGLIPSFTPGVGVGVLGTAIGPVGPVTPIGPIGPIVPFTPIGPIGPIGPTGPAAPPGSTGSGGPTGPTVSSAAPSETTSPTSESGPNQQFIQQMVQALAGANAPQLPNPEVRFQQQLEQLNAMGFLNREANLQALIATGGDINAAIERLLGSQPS
T4 sequence (Q9Y4P3 whole entry): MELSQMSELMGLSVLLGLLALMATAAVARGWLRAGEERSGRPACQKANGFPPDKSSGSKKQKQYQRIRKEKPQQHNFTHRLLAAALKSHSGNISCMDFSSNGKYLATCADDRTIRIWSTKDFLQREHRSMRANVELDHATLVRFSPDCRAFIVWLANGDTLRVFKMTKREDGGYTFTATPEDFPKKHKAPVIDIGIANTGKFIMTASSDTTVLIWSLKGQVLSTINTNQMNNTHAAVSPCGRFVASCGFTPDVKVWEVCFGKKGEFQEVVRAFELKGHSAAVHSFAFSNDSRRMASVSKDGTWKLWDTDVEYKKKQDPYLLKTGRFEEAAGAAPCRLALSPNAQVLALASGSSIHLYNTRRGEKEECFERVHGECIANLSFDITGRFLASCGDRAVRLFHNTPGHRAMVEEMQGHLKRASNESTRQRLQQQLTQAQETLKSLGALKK
T5 sequence (Q9NTN9 18-838): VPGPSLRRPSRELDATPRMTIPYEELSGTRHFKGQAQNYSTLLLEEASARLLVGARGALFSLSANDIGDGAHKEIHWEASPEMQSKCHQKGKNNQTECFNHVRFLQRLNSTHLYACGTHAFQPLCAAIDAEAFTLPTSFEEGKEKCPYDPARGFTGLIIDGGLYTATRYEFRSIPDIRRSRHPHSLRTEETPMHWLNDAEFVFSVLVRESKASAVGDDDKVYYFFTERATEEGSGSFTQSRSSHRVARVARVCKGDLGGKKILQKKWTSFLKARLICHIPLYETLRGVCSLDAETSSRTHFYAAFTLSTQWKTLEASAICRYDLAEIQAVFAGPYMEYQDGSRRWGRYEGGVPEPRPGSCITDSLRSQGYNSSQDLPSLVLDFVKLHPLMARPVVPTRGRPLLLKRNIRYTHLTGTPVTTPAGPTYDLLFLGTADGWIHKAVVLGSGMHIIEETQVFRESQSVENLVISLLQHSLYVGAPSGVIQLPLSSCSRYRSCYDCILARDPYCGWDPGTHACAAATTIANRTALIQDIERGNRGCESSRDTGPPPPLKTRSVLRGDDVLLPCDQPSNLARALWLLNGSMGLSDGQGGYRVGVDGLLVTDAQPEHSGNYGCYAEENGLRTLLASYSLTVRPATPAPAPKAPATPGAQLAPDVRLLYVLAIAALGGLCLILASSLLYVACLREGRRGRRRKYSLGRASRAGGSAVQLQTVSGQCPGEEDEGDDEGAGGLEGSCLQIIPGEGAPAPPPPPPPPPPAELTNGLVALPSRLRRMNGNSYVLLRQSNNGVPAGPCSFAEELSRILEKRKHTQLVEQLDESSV
T10 sequence (Q53GQ0 whole entry): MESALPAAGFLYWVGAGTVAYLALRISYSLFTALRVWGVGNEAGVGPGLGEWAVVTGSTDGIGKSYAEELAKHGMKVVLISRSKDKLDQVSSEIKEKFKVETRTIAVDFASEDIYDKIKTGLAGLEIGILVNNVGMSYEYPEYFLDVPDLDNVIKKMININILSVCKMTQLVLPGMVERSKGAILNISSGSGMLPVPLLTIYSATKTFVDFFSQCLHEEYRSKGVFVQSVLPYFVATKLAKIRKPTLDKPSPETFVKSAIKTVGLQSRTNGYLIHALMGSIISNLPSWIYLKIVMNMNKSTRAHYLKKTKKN
T11 sequence (Q8WVC6 whole entry): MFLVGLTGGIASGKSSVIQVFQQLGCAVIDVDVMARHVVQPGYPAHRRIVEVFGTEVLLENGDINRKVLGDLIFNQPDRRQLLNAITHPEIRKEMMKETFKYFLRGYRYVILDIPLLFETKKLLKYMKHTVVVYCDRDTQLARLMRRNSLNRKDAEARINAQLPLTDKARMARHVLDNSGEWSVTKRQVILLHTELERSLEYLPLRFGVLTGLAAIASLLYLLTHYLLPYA
T1 sequence (Q9UL54 whole entry): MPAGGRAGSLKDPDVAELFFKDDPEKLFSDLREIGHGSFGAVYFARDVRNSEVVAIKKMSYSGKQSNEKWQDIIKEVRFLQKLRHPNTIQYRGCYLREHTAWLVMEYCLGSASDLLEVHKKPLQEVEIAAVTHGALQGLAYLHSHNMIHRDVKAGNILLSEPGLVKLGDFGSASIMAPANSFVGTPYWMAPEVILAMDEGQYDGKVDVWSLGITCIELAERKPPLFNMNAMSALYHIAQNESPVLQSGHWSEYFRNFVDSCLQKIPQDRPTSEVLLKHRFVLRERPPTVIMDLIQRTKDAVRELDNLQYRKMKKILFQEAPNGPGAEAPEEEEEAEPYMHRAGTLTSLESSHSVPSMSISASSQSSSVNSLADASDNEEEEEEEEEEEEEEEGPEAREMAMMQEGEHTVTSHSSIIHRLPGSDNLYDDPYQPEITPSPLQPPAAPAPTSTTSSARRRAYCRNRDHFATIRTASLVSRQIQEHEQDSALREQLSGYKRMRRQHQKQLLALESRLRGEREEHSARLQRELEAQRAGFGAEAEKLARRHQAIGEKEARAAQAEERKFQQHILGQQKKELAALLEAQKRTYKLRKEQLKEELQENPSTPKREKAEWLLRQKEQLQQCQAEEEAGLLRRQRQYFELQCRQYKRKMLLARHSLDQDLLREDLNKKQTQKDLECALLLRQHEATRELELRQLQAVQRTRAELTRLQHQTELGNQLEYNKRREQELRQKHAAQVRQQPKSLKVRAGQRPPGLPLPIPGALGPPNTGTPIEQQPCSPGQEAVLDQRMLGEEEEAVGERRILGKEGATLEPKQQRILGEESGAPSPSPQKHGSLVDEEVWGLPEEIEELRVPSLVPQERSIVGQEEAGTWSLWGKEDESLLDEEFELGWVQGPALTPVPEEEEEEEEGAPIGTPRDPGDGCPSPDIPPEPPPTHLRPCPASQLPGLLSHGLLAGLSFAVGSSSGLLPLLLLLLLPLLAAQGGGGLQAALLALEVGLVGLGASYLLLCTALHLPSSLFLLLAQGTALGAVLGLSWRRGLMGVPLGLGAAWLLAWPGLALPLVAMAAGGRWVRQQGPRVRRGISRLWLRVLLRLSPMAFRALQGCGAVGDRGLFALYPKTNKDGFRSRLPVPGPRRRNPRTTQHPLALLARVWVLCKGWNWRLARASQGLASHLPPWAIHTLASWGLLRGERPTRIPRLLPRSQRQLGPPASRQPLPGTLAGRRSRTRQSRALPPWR
T9 sequence (Q9NXW2 whole entry): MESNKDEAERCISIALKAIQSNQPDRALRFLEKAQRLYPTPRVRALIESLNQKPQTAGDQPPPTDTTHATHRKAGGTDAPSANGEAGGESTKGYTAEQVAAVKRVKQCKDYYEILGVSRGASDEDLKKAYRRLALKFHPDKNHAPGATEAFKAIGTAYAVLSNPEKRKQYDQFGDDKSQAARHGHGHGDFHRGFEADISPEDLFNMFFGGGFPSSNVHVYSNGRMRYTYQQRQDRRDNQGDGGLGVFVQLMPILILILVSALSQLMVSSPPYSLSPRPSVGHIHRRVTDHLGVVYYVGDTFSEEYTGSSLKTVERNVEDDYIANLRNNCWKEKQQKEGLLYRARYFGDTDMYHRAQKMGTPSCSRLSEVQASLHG
T6 sequence (Q6IC98 whole entry): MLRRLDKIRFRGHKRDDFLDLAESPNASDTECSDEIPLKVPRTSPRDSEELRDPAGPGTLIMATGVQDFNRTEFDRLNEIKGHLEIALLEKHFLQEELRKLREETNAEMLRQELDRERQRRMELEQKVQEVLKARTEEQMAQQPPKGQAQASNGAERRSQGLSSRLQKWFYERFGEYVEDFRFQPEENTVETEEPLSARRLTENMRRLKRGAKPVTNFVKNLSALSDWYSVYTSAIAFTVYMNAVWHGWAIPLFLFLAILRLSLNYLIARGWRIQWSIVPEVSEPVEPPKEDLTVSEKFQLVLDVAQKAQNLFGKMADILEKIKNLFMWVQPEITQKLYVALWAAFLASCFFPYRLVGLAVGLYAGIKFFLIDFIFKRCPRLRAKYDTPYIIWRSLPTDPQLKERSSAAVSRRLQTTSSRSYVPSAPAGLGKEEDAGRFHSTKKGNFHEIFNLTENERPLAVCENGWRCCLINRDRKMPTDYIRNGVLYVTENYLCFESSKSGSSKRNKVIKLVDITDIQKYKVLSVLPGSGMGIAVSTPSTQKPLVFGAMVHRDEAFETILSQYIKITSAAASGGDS
T3 sequence (P62166 whole entry): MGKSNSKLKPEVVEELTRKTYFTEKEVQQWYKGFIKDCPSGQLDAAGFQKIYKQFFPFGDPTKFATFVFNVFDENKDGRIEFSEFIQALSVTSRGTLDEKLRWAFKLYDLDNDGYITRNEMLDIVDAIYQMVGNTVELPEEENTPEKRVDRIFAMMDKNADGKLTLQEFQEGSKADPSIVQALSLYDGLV

Structure (SMILES): CCC(=C(c1ccccc1)c1ccc(OCCN(C)Cc2cn(CCOCCOCCOCCOCCOCCNC(=O)CCC(NC(=O)c3ccc(N(C)Cc4cnc5nc(N)nc(N)c5n4)cc3)C(=O)O)nn2)cc1)c1ccccc1 (stereo not shown) [MTX-PEG6-tamoxifen]
- Recurrence (x/4) [1]: 1 x/4
- Recurrence (x/4) [2]: 1 x/4
- Recurrence (x/4) [3]: 1 x/4
- Recurrence (x/4) [4, 15]: 3 x/4
- Recurrence (x/4) [4, 16]: 2 x/4
- Recurrence (x/4) [5]: 1 x/4
- Recurrence (x/4) [6]: 1 x/4
- Recurrence (x/4) [7]: 1 x/4
- Recurrence (x/4) [8]: 1 x/4
- Recurrence (x/4) [9]: 1 x/4
- Recurrence (x/4) [10]: 1 x/4
- Recurrence (x/4) [11]: 2 x/4
- Recurrence (x/4) [12, 15]: 1 x/4
- Recurrence (x/4) [12, 16]: 1 x/4
- Recurrence (x/4) [13]: 1 x/4
- luciferase activity (MASPIT signal) [14]: increased luciferase activity in a dose-dependent manner
